According to patent US5506102A (priority 1993, dated 1996):

Tests used:
[1] = system: ER; assay: ER transcriptional activity on MMTV-ERE-LUC in HepG2 and HS578T cells; type: cell-based; details: data not shown
[2] = system: glucocorticoid receptor (GR); assay: GR transcriptional activity on MMTV-LUC, CV-1 cells, GR co-expressed with PR-A; type: cell-based; details: 1440 min
Description: (§1) Cells were seeded in 12-well, 96-well or 10 cm tissue culture plates. […] 20 μg of DNA/ml of transfection buffer were used in each transfection reaction. In this mix, the concentration of the luciferase plasmids and that of the internal control plasmid pCH110 (Pharmacia, Inc.), which contains the gene for the β-galactosidase enzyme, remained constant ([…] of each plasmid DNA), while the receptor plasmid concentration varied as indicated for each experiment. Different amounts of receptor parental plasmid, pSV2-neo (Dr. Bert O'Malley, Baylor College of Medicine, Houston, Tex.) was included to keep constant the total amount of the SV40 enhancer vectors. pGEM4 plasmid DNA (Promega Biotech, Madison, Wis.) was added to balance the total DNA concentration to 20 g/reaction. For the 96-well plate experiments, transfections were performed on a Biomek 1000 Automated Laboratory Workstation (Beckman Instruments, Fullerton, Calif.).
(§2) Cells were seeded 24 hours prior to transfection in the fiat-bottom tissue culture plates ([…]) in phenol red-free DMEM containing 10% FCS. […] Using calcium phosphate co-precipitation, DNA solution was added dropwise with vortexing into an equal volume of 2X HBS pH 6.9 (280 mM NaCl. 50 mM HEPES, 1.5 mM Na2 HPO4) and precipitates were allowed to form for 20 minutes. Cells were transfected ( […] of DNA mix/well) for 6 hours and then washed with phosphate-bufferedsaline (PBS) to remove the precipitate. Cells were incubated for an additional 24 hours in phenol red-free medium containing 10% charcoal-treated FCS, with or without hormones as indicated in the text. Cell extracts were prepared as described by Berger et al., Supra, and assayed for luciferase and β-galactosidase activities. All determinations were performed in triplicates in at least two independent experiments, and were normalized for transfection efficiency by using β-galactosidase as an internal control.

[3] = system: PR-B (co-expressed with PR-A); assay: PR-A repression of PR-B mediated MMTV-LUC transcription (co-transfection); type: cell-based, human; details: for transcriptional repression: HeLa, FIG. 3B
Description: FIGS 3A-3B are a series of graphs showing CV-1 (FIG. 3A) or HeLa (FIG. 3B) cells that were transiently transfected with either 0.25 g of phPR-A or 0.25 g phPR-B alone, or 0.25 g phPR-B in the presence of increasing concentration of phPR-A together with […] of the MMTV-LUC reporter and […] of pCH110 as an internal control. […] The relative luciferase activity is calculated by dividing the normalized luciferase value at a given point by that obtained in the absence of transfected receptor or ligand. Data shown indicate the mean +/- average deviation from the mean of triplicate estimations;
as §1, §2

[4] = biological target: T1, PR-B (Homo sapiens, UniProt P06401); assay: PR-B transactivation of PRE2 tk-LUC; type: cell-based; details: CV-1, 10^-7 M progesterone, FIG. 4A
T1 sequence (P06401 1-933): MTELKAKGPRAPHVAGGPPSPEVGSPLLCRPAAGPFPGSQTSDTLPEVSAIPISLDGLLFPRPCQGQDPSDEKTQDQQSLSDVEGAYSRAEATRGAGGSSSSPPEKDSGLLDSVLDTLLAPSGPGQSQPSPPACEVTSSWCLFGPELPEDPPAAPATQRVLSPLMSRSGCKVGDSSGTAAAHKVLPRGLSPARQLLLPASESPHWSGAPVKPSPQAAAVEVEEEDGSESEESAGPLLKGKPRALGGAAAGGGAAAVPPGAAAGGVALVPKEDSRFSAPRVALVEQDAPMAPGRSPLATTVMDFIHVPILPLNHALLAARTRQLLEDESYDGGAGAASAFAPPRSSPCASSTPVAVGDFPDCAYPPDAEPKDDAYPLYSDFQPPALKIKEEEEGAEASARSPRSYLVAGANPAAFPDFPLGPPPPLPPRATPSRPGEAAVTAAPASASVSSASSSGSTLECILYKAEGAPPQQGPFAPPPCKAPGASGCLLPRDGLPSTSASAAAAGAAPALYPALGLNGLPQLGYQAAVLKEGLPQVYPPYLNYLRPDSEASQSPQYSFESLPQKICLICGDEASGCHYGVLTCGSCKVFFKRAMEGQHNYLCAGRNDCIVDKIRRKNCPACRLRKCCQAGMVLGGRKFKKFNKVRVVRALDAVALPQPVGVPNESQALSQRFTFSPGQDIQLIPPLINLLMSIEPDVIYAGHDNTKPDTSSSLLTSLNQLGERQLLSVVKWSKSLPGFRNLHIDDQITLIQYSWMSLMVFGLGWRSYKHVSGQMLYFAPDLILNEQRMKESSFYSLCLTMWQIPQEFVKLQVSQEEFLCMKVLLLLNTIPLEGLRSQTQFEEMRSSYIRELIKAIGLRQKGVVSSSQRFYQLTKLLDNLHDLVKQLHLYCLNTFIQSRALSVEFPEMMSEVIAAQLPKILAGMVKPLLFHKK
Description: FIGS. 4A-4B are a series of graphs showing CV-1 ([…]) or HepG2 (FIG. 4B) cells that were transiently transfected with either […] of phPR-B or phPR-A alone, or phPR-B in the presence of increasing concentrations of phPR-A, together with 5 µg/ml of the PRE2 tk-LUC reporter and 5 µg/ml of pCH110 as an internal control. HeLa cells (FIG. 4C) were transfected with either phPR-B or phPR-A together with 5 µg/ml of the pTAT2950 reporter and 5 µg/ml of pCH110 as an internal control. […] The relative luciferase activity is calculated by dividing the normalized luciferase value at a given point by that obtained in the absence of transfected receptor or ligand. The data shown represent the mean +/- average deviation from the mean of triplicate estimations;
Both reporter plasmids were digested with XhoI and HindIII restriction enzymes and a 6.7 Kb fragment from MMTV-LUC and a 0.12 Kb fragment from PRE2 tk-CAT were isolated and ligated, resulting in a plasmid called PRE2 tk-LUC.
Cells were seeded in 12-well, 96-well or 10 cm tissue culture plates. […] 20 μg of DNA/ml of transfection buffer were used in each transfection reaction. […]

Row | SMILES | anti-estrogenic activity ([1]; HS578T cells) | anti-estrogenic activity ([1]; HepG2 cells) | reduction in GR activity ([2]; GR and PR-A, 10^-9 M progesterone, 5×10^-8 M dexamethasone, FIG. 6, 0.001 µM) | GR activity, of induced control levels ([2]; presence of progesterone and dexamethasone, PR-A co-expressed, FIG. 5A, 0.1 µM) | recovery of PR-B mediated transcription ([3]; CV-1, PR-A/PR-B DNA ratio 1:5) | recovery of PR-B mediated transcription ([3]; CV-1, PR-A/PR-B DNA ratio 1:25) | inhibition of MMTV-LUC transcriptional activity ([3]; CV-1, equimolar concentrations of PR-A and PR-B) | transcriptional repression ([3]; 1:1 PR-A/PR-B DNA ratio) | transcriptional repression ([3]; 1:5 PR-A/PR-B DNA ratio) | transcriptional repression ([3]; 1:25 PR-A/PR-B DNA ratio) | effect of coexpression of PR-A and PR-B on MMTV transcription ([3]; HepG2, data not shown) | IC50 ([3]; read-out: progesterone concentration required for half maximal inhibition, CV-1, PR-A mediated repression of PR-B, MMTV) | PR-B transcriptional activity on PRE2 tk-LUC [4]
1 | CC#C[C@]1(O)CC[C@H]2[C@@H]3CCC4=CC(=O)CCC4=C3[C@@H](c3ccc(C(C)=O)cc3)C[C@@]21C [ZK112993] | both anti-progestins functioned as anti-estrogens | neither anti-progestin exhibited any anti-estrogenic activity |  |  |  |  |  |  |  |  |  |  | 
2 | CC(=O)[C@H]1CC[C@H]2[C@@H]3CCC4=CC(=O)CC[C@]4(C)[C@H]3CC[C@]12C [progesterone] |  |  | 50% | 2% | […] | […] | […] | […] | […] | […] | […] | […] | transcriptionally active
